Assay results published in patent US20240300943A1, “NOVEL SALTS OF HETEROCYCLIC COMPOUND AS PROTEIN KINASE INHIBITOR AND USES THEREOF” (HK INNO.N CORPORATION, priority 2021, published 2024).
pIC50: −log10 of the molar value.

System: JAK1, Tyk2
Experiment: In vitro cell assay, JAK1, Tyk2 (U2OS cells, IFN-alphaB2)
Type: cell-based
Conditions: Homo sapiens, read-out: IC50, Cell Biology JAK1, Tyk2
Procedure: Furthermore, there is a literature in which U20S cells are associated with JAK1/TYK2 signaling activity and phosphorylation of STAT1 by IFN-alphaB2 and IFN-γ. Accordingly, U2OS cells were prepared for the evaluation of JAK1 and TYK2 as a cell line which strongly expresses STAT1 signals.
The test material was dissolved in DMSO, prepared at 10 mM, divided by 20 μL each, and stored at −20° C.
• EPO: 2000 U/0.5 mL of stock was divided by 50 μL each and stored under refrigeration. • IL-2: 200 μg/ml of stock was prepared, divided by 5 μL each, and stored, and then treated at 2 ng/ml. (IL-2 1 μg/ml=13000 U/ml) • IFN-alphaB2: […] of stock was diluted and used, and then treated to reach 30000 U/ml.
• UT-7/EPO cell assay: MEM-alpha (Gibco, cat #12561-056) was prepared to contain 5% FBS and 1% P/S before use. • NK-92 cell assay: A preparation was made to contain HBSS, 1% FBS and 1% P/S before use. • U2OS cell assay: A preparation was made to contain HBSS, 1% FBS and 1% P/S before use.
The cultured cells were centrifuged (1,000 rpm, 5 minutes) and washed with PBS. The size of cell lines and appropriate reaction concentration thereof were set and the cell lines were seeded in a 96-well plate at 1×10^5 to 10^6 cells/well (50 μL/well). The test material was prepared 4× of the concentration to be treated, and prepared at five to six concentrations by serial dilution of ⅕ each. […]

Structure (SMILES): C[C@@H]1CN(C(=O)CC#N)CC=C1c1cc(NC(=O)C2CC2)nc2[nH]ccc12 [Compound 1, (S)—N-(4-(1-(2-cyanoacetyl)-3-methyl-1,2,3,6-tetrahydropyridin-4-yl)-1H-pyrrolo[2,3-b]pyridin-6-yl)cyclopropanecarboxamide]
- pIC50: 7.57
